These results are taken from US4477440A, “Renin inhibitors containing an n-terminal disulfide cycle” (Merck & Co., Inc., priority 1983, dated 1984).

Positions of bridges follow the written chain, without caps; N, C: chain ends. Non-standard residues stand in square brackets, D forms with d. Residues, ends and D or L forms follow the SMILES beside them. Sta = CC(C)C[C@H](N)[C@@H](O)CC(=O)O; hCys = N[C@@H](CCS)C(=O)O

For test [1], the target named is T1, human kidney renin (Homo sapiens, UniProt P00797).
T1 construct: human kidney renin purified as described in Bangham; from tissue; host or cells: human kidney
T1 sequence (P00797 67-406): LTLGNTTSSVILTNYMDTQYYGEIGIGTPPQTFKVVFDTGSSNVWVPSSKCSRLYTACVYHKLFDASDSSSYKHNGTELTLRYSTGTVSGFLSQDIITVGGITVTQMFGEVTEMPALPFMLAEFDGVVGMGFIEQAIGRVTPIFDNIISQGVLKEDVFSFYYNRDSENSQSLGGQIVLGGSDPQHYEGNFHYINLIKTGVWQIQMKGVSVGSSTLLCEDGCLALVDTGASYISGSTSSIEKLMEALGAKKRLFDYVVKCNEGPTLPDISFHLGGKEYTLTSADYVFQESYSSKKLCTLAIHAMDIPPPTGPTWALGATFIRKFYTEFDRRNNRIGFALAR
The test can be described thus: Human renin inhibition. The class given is biochemical. As to conditions: purified human kidney renin; dissociation constant of enzyme-inhibitor complex. The method, then:
An assay was carried out in order to determine the inhibitory potency of the peptides of the present invention. The assay measured the inhibition of human kidney renin purified as described in Bangham, D. R., Robertson, I., Robinson, J. I. S., Robinson, C. J., and Tree, M., Clinical Science and Molecular Medicine, 48 (Supp. 2): 136s-159s (1975), and further purified by affinity chromatography on pepstatin-aminohexyl-Sepharase as described in Poe, M., Wu., J. K., Florance, J. R., Radkey, J. A., Bennett, C. D., and Hoogsteen, K., J. Biol. Chem. (1982, in press). The assay was also in accordance with Poe et al. cited above. Results are expressed as KI values, which refer to the dissociation constant of the inhibited enzyme-inhibitor complex. This KI value was obtained as described above. Pepstatin was used as an active control.

For test [2], the system named is hog renin. As to conditions: after injection of hog renin into nephrectomized rats; cited from earlier work.

The term Ki denotes a measure of affinity in units of concentration, obtained from inhibition or displacement. Read a high Ki as lower affinity. As for `COC(=O)[C@H](Cc1ccccc1)NC(=O)[C@H](CC(C)C)NC(=O)C[C@H](O)[C@H](CC(C)C)NC(=O)[C@@H]1CCSSCC[C@H](N)C(=O)N2CCC[C@H]2C(=O)N[C@@H](Cc2ccccc2)C(=O)N1` (H-[hCys]PF[hCys][Sta]LF-OMe; disulfide 1-4), the affinity in test [1] corresponds to a Ki of 410 nM. Turning to pepstatin, the “blood pressure in vivo” value in test [2] was “reduce blood pressure in vivo”.
